Where two headings read alike, the source gives them in different places.
Legend:
[1] = tested on: P. larvae spores; experiment: Inhibition of P. larvae spore germination by indole and phenol, IC50 titration (Example 1); format: cell-based, Paenibacillus larvae subsp. pulvifaciens strain ATCC 49843; details: for IC50: Paenibacillus larvae
Procedure: The decrease in optical density is proportional to spore germination (Powell, J. Gen. Microbiol., 4:330-338, 1950). Changes in light diffraction during spore germination were monitored at 580 nm (OD580) on a Biomate 5 (ThermoElectron Corporation, Waltham, Mass.) or a Tecan Infinite m200 (Tecan group, Männedorf, Switzerland) spectrophotometer. Experiments were carried out in 96-well plates (200 μL/well). In preparation for germination assays, P. larvae spore suspensions were washed three times with water. Spores were then heat activated at 70° C. for 30 minutes. The heat-activated spores were allowed to reach room temperature and transferred to 0.1 M sodium phosphate buffer (pH 7.0) to an approximate OD580 of 0.70. Spores were monitored for auto-germination for 30 minutes. […] Putative germinants were added individually or in combinations to a final concentration of 3 mM. Experiments were performed in triplicate with at least two different spore preparations. After germinant addition, OD580 of the spore suspension was measured every minute for an hour. Relative OD values were derived by dividing each OD580 reading by the initial OD580. Spore germination rates (v) were calculated from the initial linear decrease in relative OD (Akoachere et al., supra). Germination rates were set to 100% for P. larvae spores that had the fastest germination rate in an assay. Germination rates for other conditions were divided by the maximum germination rate for that assay and are reported as percent germination. […] Spore germination was confirmed in selected samples by microscope observation of Schaeffer-Fulton stained aliquots (Schaeffer and Fulton, supra).
After 15 minutes of incubation, spores were treated with 3 mM L-tyrosine/3 mM uric acid. The germination rate was set to 100% for P. larvae spores germinated in the absence of inhibitor. Germination rates for other conditions were divided by the uninhibited maximum germination rate obtained with 3 mM L-tyrosine/3 mM uric acid, and are reported as percent germination. Percent germination was plotted against inhibitor concentrations. The resulting sigmoidal curves were fitted using the four parameter logistic function in SigmaPlot v.9 to calculate IC50 values.

[2] = tested on: P. larvae spores; experiment: Inhibition of P. larvae spore germination, IC50 titration of indole analogs (Example 2); format: cell-based, Paenibacillus larvae subsp. pulvifaciens strain ATCC 49843
Procedure: After a 15 minute incubation, the spores were treated with 3 mM L-tyrosine-3 mM uric acid. The germination rate was set to 100% for P. larvae spores germinated in the absence of inhibitor. Germination rates for other conditions were divided by the uninhibited maximum germination rate obtained with 3 mM L-tyrosine-3 mM uric acid, and are reported as percent germination. Percent germination was plotted against the inhibitor concentrations.

[3] = tested on: honey bee larvae contacted with P. larvae spores; experiment: Survival of honey bee larvae fed diet with indole analogs and P. larvae spores; format: in vivo; details: 0.5 mM in larval diet (wj) plus P. larvae spores; for survival of honey bee larvae vs P. larvae spores alone: 7-day development, p<0.002
Procedure: First instar honey bee larvae were obtained from two colonies headed by naturally mated queens (Honey Bee Genetics, Vacaville Calif.). Queens were trapped on empty frames within a cage constructed with queen excluder. Worker bees can fit through the excluder but the queen cannot exit the cage. The frame was placed within the brood chamber to stimulate egg laying by the queen overnight. Eggs were incubated in the hive for 4 days to allow newly hatched larvae to be fed by nurse bees. First instar honey bee larvae were brought into the laboratory and stored in a 35° C. 85% relative humidity chamber before grafting.
Sterile six well plates with a well volume of 17.0 ml were filled with 2.5 ml of pre-warmed artificial worker jelly. Honey bee larvae were transferred into each well using the thin tongue made of flexible plastic from a Chinese grafting tool. The plastic grafting tool was decontaminated with 70% ethanol throughout usage. Grafting was performed in the sterile environment of a honey bee laboratory, and honey bee larvae were then transferred to a bacterial spore laboratory for control and spore exposure treatments.
Artificial worker jelly was prepared using a lyophilized royal jelly, D-glucose, D-fructose, yeast extract, and autoclaved double distilled water. Ingredients minus lyophilized royal jelly were dissolved in autoclaved double distilled water. Lyophilized royal jelly was added to this sugar-yeast extract solution and mixed thoroughly with a vortex mixer. Artificial diet was prepared an hour prior to use for larval rearing. To reduce the development of worker-queen hybrids because of nutrition, the composition and amounts of artificial worker jelly were controlled in every larval stage.
Honey bee larvae were incubated in an air tight plastic container placed inside an incubator. The desired relative humidity (95%) and temperature (35° C.) was verified with an iButton data logger (Maxim Integrated; San Jose, Calif.). The appropriate relative humidity was obtained by placing a solution of 20% glycerol by weight. The plastic containers were was decontaminated throughout usage with detergent, 70% ethanol, and treated with an ultraviolet lamp overnight.
Feeding of diets was performed daily in different amounts according to Table 2. The amount of diet consumed by larvae was assumed based on published literature. A micropipette was used to place a food drop next to the mouth of the larvae. Drowning was avoided by maintaining the appropriate humidity and water content of diet. Forty first and second instar larvae were placed into one well of a six well plate. Third instar larvae were transferred individually to 48 well plates filled with fresh food.
Larval survival was determined daily by observing signs of respiration, disease symptoms, and other abnormalities with a stereo microscope. The number of dead larvae was recorded, and surviving larvae were fed fresh food. The start of pupation was indicated by the appearance of uric acid crystals and light yellow excretions in the remaining food.
The larval survival data was analyzed using the LogRank test in SigmaPlot.

[4] = tested on: P. larvae spores; experiment: Activation of P. larvae spore germination by L-tyrosine and uric acid (titration); format: cell-based, Paenibacillus larvae subsp. pulvifaciens strain ATCC 49843; details: Paenibacillus larvae
Procedure: The decrease in optical density is proportional to spore germination (Powell, J. Gen. Microbiol., 4:330-338, 1950). Changes in light diffraction during spore germination were monitored at 580 nm (OD580) on a Biomate 5 (ThermoElectron Corporation, Waltham, Mass.) or a Tecan Infinite m200 (Tecan group, Männedorf, Switzerland) spectrophotometer. Experiments were carried out in 96-well plates (200 μL/well). In preparation for germination assays, P. larvae spore suspensions were washed three times with water. Spores were then heat activated at 70° C. for 30 minutes. The heat-activated spores were allowed to reach room temperature and transferred to 0.1 M sodium phosphate buffer (pH 7.0) to an approximate OD580 of 0.70. Spores were monitored for auto-germination for 30 minutes. […] After germinant addition, OD580 of the spore suspension was measured every minute for an hour. Relative OD values were derived by dividing each OD580 reading by the initial OD580. Spore germination rates (v) were calculated from the initial linear decrease in relative OD (Akoachere et al., supra). […] Standard deviations were calculated from at least six independent measurements and are typically below 10%. […]
P. larvae spore germination was tested with different combinations of L-tyrosine and uric acid. […] Germination rates were determined as above. […]

[5] = tested on: P. larvae subsp. larvae spores; format: cell-based, Paenibacillus larvae subsp. larvae
Text: Chemicals were purchased from Sigma Aldrich Corporation (St. Louis, Mo.). Dehydrated culture media was purchased from BD Difco (Franklin Lakes, N.J.). Paenibacillus larvae subsp. pulvifaciens strain ATCC 49843 was purchased from the […] (ATCC). Environmental American Foulbrood scales (the remains of infected larvae collected from infected hives) were kindly donated by Dr. Jay D. Evans at the USDA Bee Research Facility in Beltsville, Md.
To test the generality of P. larvae spore response, spores were prepared from P. larvae subsp. pulvifaciens strain ATCC 49843, and also from an environmental AFB sample.

[6] = tested on: P. larvae spores; experiment: Antagonists of P. larvae spore germination, 3 mM (Example 1); format: cell-based, Paenibacillus larvae subsp. pulvifaciens strain ATCC 49843; details: 3 mM analog, 15 minutes, then 3 mM L-tyrosine/3 mM uric acid
Procedure: (§1) The decrease in optical density is proportional to spore germination (Powell, J. Gen. Microbiol., 4:330-338, 1950). Changes in light diffraction during spore germination were monitored at 580 nm (OD580) on a Biomate 5 (ThermoElectron Corporation, Waltham, Mass.) or a Tecan Infinite m200 (Tecan group, Männedorf, Switzerland) spectrophotometer. Experiments were carried out in 96-well plates (200 μL/well). In preparation for germination assays, P. larvae spore suspensions were washed three times with water. Spores were then heat activated at 70° C. for 30 minutes. The heat-activated spores were allowed to reach room temperature and transferred to 0.1 M sodium phosphate buffer (pH 7.0) to an approximate OD580 of 0.70. Spores were monitored for auto-germination for 30 minutes. […] Putative germinants were added individually or in combinations to a final concentration of 3 mM. Experiments were performed in triplicate with at least two different spore preparations. After germinant addition, OD580 of the spore suspension was measured every minute for an hour. Relative OD values were derived by dividing each OD580 reading by the initial OD580. Spore germination rates (v) were calculated from the initial linear decrease in relative OD (Akoachere et al., supra). Germination rates were set to 100% for P. larvae spores that had the fastest germination rate in an assay. Germination rates for other conditions were divided by the maximum germination rate for that assay and are reported as percent germination. Standard deviations were calculated from at least six independent measurements and are typically below 10%. Spore germination was confirmed in selected samples by microscope observation of Schaeffer-Fulton stained aliquots (Schaeffer and Fulton, supra).
To test for possible antagonists of P. larvae spore germination, spores were individually supplemented with 3 mM of a purine analog or 3 mM of an amino acid analog. […] If no germination was detected, L-tyrosine and uric acid were added to 3 mM final concentrations, and germination was monitored as described above. […]

[7] = tested on: P. larvae spores; experiment: Determination of germinants / agonists of P. larvae spore germination (OD580 decrease); format: cell-based, Paenibacillus larvae subsp. pulvifaciens strain ATCC 49843; details: 3 mM amino acid or analog plus 3 mM uric acid
Procedure: as §1
To test for possible agonists of P. larvae spore germination, spores were individually supplemented with 3 mM of a purine analog and 3 mM L-tyrosine. Separately, P. larvae spores were incubated with 3 mM of an amino acid analog and 3 mM uric acid. Spore germination was monitored as described above. […]

[8] = 15 minutes incubation, then 3 mM L-tyrosine/3 mM uric acid, read-out: IC50 inhibition of P. larvae spore germination
[9] = Table 1, 15 minutes prior to addition of 3 mM uric acid and 3 mM L-tyrosine, standard deviations in parentheses, N/A = no activity under the conditions tested, read-out: IC50
[10] = Paenibacillus larvae, Table 2, saturating uric acid/L-tyrosine concentrations, read-out: IC50
[11] = environmental P. larvae subsp. larvae compared with strain ATCC 49843

## Cc1ccc2[nH]ccc2c1 [5-methylindole]
[1]; [8]
  IC50: 370 µM
[1]; [9]
  IC50: 370 µM

## Brc1ccc2cc[nH]c2c1 [6-bromoindole]
[2]; [10]
  IC50: 60 ± 60 µM
[3]
  survival of honey bee larvae vs P. larvae spores alone: increased survival

## Clc1ccc2cc[nH]c2c1 [6-chloroindole]
[2]; [10]
  IC50: 20 µM
[3]
  survival of honey bee larvae vs P. larvae spores alone: increased survival

## O=c1[nH]c(=O)c2[nH]c(=O)[nH]c2[nH]1 [uric acid, reference compound]
[4]; titration of uric acid at saturating L-tyrosine concentration (3 mM), read-out: EC50 for uric acid activation of P. larvae spore germination
  EC50: 200 µM
[5]; [11]
  germination response to L-tyrosine and uric acid, both P. larvae sub-species: responded identically

## Cc1cccc2cc[nH]c12 [7-methylindole]
[1]; [8]
  IC50: 280 µM
[1]; [9]
  IC50: 280 µM

## c1ccc2[nH]ccc2c1 [Indole]
[6]
  inhibition of uric acid/L-tyrosine-induced germination: able to inhibit
[1]
  IC50: 330 µM
[1]; read-out: IC50 inhibition of P. larvae spore germination
  IC50: 370 µM
[5]; [11]
  inhibition of germination, both P. larvae sub-species: similarly inhibited
[2]; Paenibacillus larvae
  IC50: 370 ± 20 µM
[2]; Paenibacillus larvae, read-out: IC50 inhibition of P. larvae spore germination (previously shown)
  IC50: 400 µM

## N[C@@H](Cc1ccc(O)cc1)C(=O)O [L-tyrosine]
[7]
  germination response as co-germinant with uric acid: strong germination response
[4]; read-out: EC50 for L-tyrosine activation of P. larvae spore germination
  EC50: 1200 µM
[5]; [11]
  germination response to L-tyrosine and uric acid, both P. larvae sub-species: responded identically

## Oc1ccc2[nH]ccc2c1 [5-hydroxyindole]
[2]; [10]
  IC50: 550 ± 170 µM

## N#Cc1cccc2[nH]ccc12 [4-cyanoindole]
[2]; [10]
  IC50: 200 ± 20 µM

## Fc1ccc2cc[nH]c2c1 [6-fluoroindole]
[2]; [10]
  IC50: 120 ± 10 µM

## Fc1ccc2[nH]ccc2c1 [5-fluoroindole]
[2]; [10]
  IC50: 120 ± 20 µM

## Cn1ccc2ccccc21 [1-N-methylindole]
[1]; 15 minutes incubation, then 3 mM L-tyrosine/3 mM uric acid
  IC50 inhibition of P. larvae spore germination: neither activated nor inhibited

## Cc1c[nH]c2ccccc12 [3-methylindole]
[1]; [8]
  IC50: 380 µM
[1]; [9]
  IC50: 380 µM

## N#Cc1ccc2cc[nH]c2c1 [6-cyanoindole]
[2]; [10]
  IC50: 110 ± 10 µM

## N[C@H](Cc1ccc(O)cc1)C(=O)O [D-tyrosine, reference compound]
[7]
  germination response as co-germinant with uric acid: none of the compounds tested was able to activate
[6]
  inhibition of uric acid/L-tyrosine-induced germination: did not inhibit

## Oc1ccccc1 [Phenol]
[7]
  germination response as co-germinant with uric acid: none of the compounds tested was able to activate
[6]
  inhibition of uric acid/L-tyrosine-induced germination: able to inhibit
[5]
  inhibition of germination, both P. larvae sub-species: similarly inhibited

## O=[N+]([O-])c1ccc2[nH]ccc2c1 [5-nitroindole]
[2]; [10]
  IC50: 70 ± 10 µM
[3]
  survival of honey bee larvae vs P. larvae spores alone: increased survival

## Brc1ccc2[nH]ccc2c1 [5-bromindole]
[2]; Table 2, saturating uric acid/L-tyrosine concentrations, read-out: IC50
  IC50: 60 ± 70 µM
[3]
  ranking of effect on larval survival among analogs: greatest effect
  survival of honey bee larvae vs P. larvae spores alone: increased survival

Source: patent US9668479B2, “Modulating germination of Paenibacillus larvae” (THE BOARD OF REGENTS OF THE NEVADA SYSTEM OF HIGHER …, priority 2013, dated 2017)
